Results from ChEMBL document CHEMBL3507680, “University of Dundee, Gates Library screen for HepG2 cell viability”.

Experiment: Human HepG2 cell viability assay in 384 well format
Type: toxicity, cell-based
Design: dose 125 nL, time 70.5 hour; concentration not given beside the values
Details: HepG2 cells, read-out: Inhibition

| Compound | cytotoxicity at 70.5 h |
| --- | --- |
| CC(C)N(C(=O)CN(C)C1CCc2ccccc21)C(C)C (stereo not drawn) | -0.805% |
| Cc1cnn(CCNCc2csc(-c3ccsc3)n2)c1 | -6.72% |
| Cc1cnc(C(=O)NC(CN2CCCC2=O)c2ccccc2)cn1 (stereo not drawn) | -1.21% |
| CC(C)c1ccc(OCCC(=O)N2CCC(C(N)=O)CC2)cc1 | -4.09% |
| COc1c(CNCc2ccc(N(C)C)nc2)c(C)nn1C | 24.3% |
| Cc1nc(-c2ccsc2)ccc1C(=O)NCC(C)N1CCOCC1 (stereo not drawn) | -4.37% |
| O=C(CN1CCC(c2ccccc2)C1)NC(=O)NCC(F)(F)F (stereo not drawn) | 21.4% |
| CC(C)c1ccc(OCCC(=O)N2CCCN(C(N)=O)CC2)cc1 | -1.87% |
| CCNc1cc2c(nn1)CCN(C(=O)c1ccsc1)C2 | -3.61% |
| CCc1nnc2n1CCN(CC(=O)Nc1cc(C)nn1C)C2 | -4.31% |
| Cc1nn(C)c(C)c1CC(=O)N1CCCN(c2cccnn2)CC1 | 5.97% |
| Cc1noc(Cl)c1CC(=O)N1CCC(Nc2cccnn2)CC1 | -1.04% |
| CCNc1cc2c(nn1)CCN(C(=O)c1ccc(-n3cnnc3)cc1)C2 | -0.933% |
| O=C(CSc1ccc(F)cc1F)NS(=O)(=O)c1ccc2c(c1)OCCO2 | -3.46% |
| CCNc1cc2c(nn1)CCN(C(=O)c1ccnc(C)n1)C2 | -2.85% |
| Cc1nc(C)n(CC2CCCN2Cc2cc(-c3cccs3)on2)n1 (stereo not drawn) | -13.7% |
| Cc1csc(N2CCCN(C(=O)C3(C#N)CCCC3)CC2)n1 | -8.33% |
| Cc1cc(C)n(CC2CCCN2C(=O)CCc2ccco2)n1 (stereo not drawn) | -14.5% |
| CN(C)c1ccc(C(=O)N2CCCC(n3cccn3)C2)cn1 (stereo not drawn) | 15% |
| Cc1nc(C)n(CC2CCCCN2Cc2nc(-c3ccoc3)no2)n1 (stereo not drawn) | -11.8% |
| Cc1nc(CCNCc2c(C)nn(C)c2N2CCOCC2)cs1 | -0.903% |
| Cc1cc(CN2CCN(C(=O)NC(C)c3cccnc3)CC2)no1 (stereo not drawn) | -8.62% |
| CC(C(=O)NCc1ccnc(N(C)C)c1)n1cccn1 (stereo not drawn) | -3.71% |
| CN1CCN(c2cc(CNC(=O)Cn3cccn3)ccn2)CC1 | 13.6% |

| Compound | cytotoxicity at 70.5 h |
| --- | --- |
| O=C(c1ccc(N2CCOCC2)nc1)N1CCCC(n2cccn2)C1 (stereo not drawn) | -13.9% |
| CCOc1ccccc1C(CC(=O)Nc1ccccn1)NC(C)=O (stereo not drawn) | -5.35% |
| COC(=O)c1cc(C(=O)N2CCN(C)CC2)n(-c2ccccc2)n1 | -6.12% |
| Cc1nc(C)n(CC2CCCN2Cc2nc(-c3ccco3)no2)n1 (stereo not drawn) | -4.04% |
| COC(=O)c1cc(C(=O)N2CCOC(C)(C)C2)n(-c2ccccc2)n1 | -10.1% |
| Cc1cc(C)n(CC2CCCN2C(=O)CCc2nccs2)n1 (stereo not drawn) | -7.22% |
| Cc1cnn(CCNCc2csc(-c3ccc(C)o3)n2)c1 | 19.9% |
| COCCCN1CCC(C(=O)c2cc(F)ccc2F)CC1 | -0.37% |
| Cc1cnn(CCNCc2nc(-c3ccccn3)no2)c1 | -6.05% |
| CC(=O)N1CCCN(C(=O)NCc2cccnc2OC(C)C)CC1 | -5.61% |
| COC(=O)CN1CCC(C(=O)c2cc(F)ccc2F)CC1 | -3.39% |
| COCCN1CCC(C(=O)c2cc(F)ccc2F)CC1 | -2.7% |
| CCc1nc(CNCCn2cc(C)cn2)no1 | -5.71% |
| CCc1nc(C2CCCN2C(=O)c2cc3c(s2)CCC3)no1 (stereo not drawn) | -2.7% |
| NC(=O)C1CCN(C(=O)NCc2cccnc2OC2CCCC2)C1 (stereo not drawn) | -5.81% |
| CCOc1ccccc1OC1CCN(C(=O)c2c[nH]nn2)CC1 | -0.281% |
| CCOc1ccccc1OC1CCN(C(=O)c2cnns2)CC1 | -3.73% |
| Cc1ncccc1CNC1CCCN(Cc2noc(C3CC3)n2)C1 (stereo not drawn) | 0.441% |
| CCc1nc(C2CCCN2CC(=O)N2CCCc3ccccc32)no1 (stereo not drawn) | 22% |
| O=C(N1CCCCC1)N1CCN(CC(O)c2ccccc2)CC1 (stereo not drawn) | -3.61% |
| O=C(Cc1ccc2c(c1)OCCO2)N1CCN(c2cnccn2)CC1 | -1.49% |
| CC(=O)N1CCN(C(=O)NCc2cccnc2OC(C)C)CC1 | 26.4% |
| CCOc1ccccc1OC1CCN(C(=O)c2csnn2)CC1 | -5.03% |
| O=C(Cc1ccc2c(c1)CCO2)N1CCN(c2ccccn2)CC1 | 2.5% |

| Compound | cytotoxicity at 70.5 h |
| --- | --- |
| O=C(Cc1ccc2c(c1)CCO2)N1CCN(c2ccncc2)CC1 | 6.77% |
| Cc1cc(C)c(CNC(=O)NCc2ccc(F)cc2)c(=O)[nH]1 | -3.16% |
| O=C(Cc1ccccc1)N1CCN(CC(O)c2ccc(F)cc2)CC1 (stereo not drawn) | -4.03% |
| O=C(N1CCOCC1)N1CCN(CC(O)c2ccc(F)cc2)CC1 (stereo not drawn) | 3.33% |
| CCn1ccnc1CN1CCN(CCOc2ccc(C#N)cc2)CC1 | -4.7% |
| NC(=O)COc1cccc(CN2CCc3cncnc3C2)c1 | -0.423% |
| CC(C)c1ncc2c(n1)CN(Cc1cccc(C(N)=O)c1)CC2 | -4.48% |
| CC(C)Oc1ncccc1CNC(=O)N1CCC(n2cccc2)CC1 | -0.649% |
| Cc1nc(C2CCCN2C(=O)c2cc3c(s2)CCC3)no1 (stereo not drawn) | -6.34% |
| CCN(CC)Cc1ccc(C(=O)N2CCN(CC(C)O)CC2)o1 (stereo not drawn) | -5.77% |
| CCN(C(=O)Nc1cccnc1OC)C1CC1 | -9.27% |
| Cc1cccnc1NC(=O)NC(C)Cn1cccn1 (stereo not drawn) | -7.34% |
| CCN(Cc1ccc2c(c1)OCCO2)S(=O)(=O)N(C)C(C)C | -7.62% |
| CCn1c(C(=O)N2CCN(C(=O)NC(C)C)CC2)cc2ccccc21 | -9.47% |
| COc1c(C)cnc(CN2CCC(C(=O)N(C)C)CC2)c1C | -23.8% |
| Fc1ccc(-c2nnc(CN3CCCC3Cn3cncn3)o2)cc1 (stereo not drawn) | -8.54% |
| CCn1c(C(=O)N2CCN(CC(C)O)CC2)cc2ccccc21 (stereo not drawn) | 21.6% |
| Fc1ccc(-c2nnc(CN3CCOC(Cn4cncn4)C3)o2)cc1 (stereo not drawn) | -28.7% |
| Cc1cc(C(=O)N2CCCCC2c2nc(C)cs2)[nH]n1 (stereo not drawn) | -7.87% |
| COc1ccc(C(=O)N2CCCCC2c2nc(C)cs2)nn1 (stereo not drawn) | 23.8% |
| c1cnnc(NCC2CN(CCN3CCCCC3)CCO2)c1 (stereo not drawn) | -11.2% |
| O=C(CS(=O)(=O)CC1CCCCC1)NC1CCCCNC1=O (stereo not drawn) | -14.4% |
| OCCN1CCN(Cc2coc(-c3ccc(Cl)cc3)n2)CC1 | -11.8% |
| CC(C(=O)NCCCN1CCCCCC1=O)n1cncn1 (stereo not drawn) | -0.359% |

| Compound | cytotoxicity at 70.5 h |
| --- | --- |
| CC(=O)NCCc1ccc(C(=O)N2CCCC2c2cnn(C)c2)cc1 (stereo not drawn) | 15.1% |
| Cn1cnnc1C1CCCN(C(=O)NCc2cc[nH]n2)C1 (stereo not drawn) | 18.7% |
| CN(Cc1cscn1)C1CCCN(Cc2noc(C3CC3)n2)C1 (stereo not drawn) | 22.4% |
| O=C(NCCn1ccnc1)c1cccc(F)c1 | -11.3% |
| Cc1nnc(NC(=O)NCc2ccc(N3CCN(C)CC3)nc2)s1 | -24.8% |
| Cc1cccc(N2CCN(CCNC(=O)C(C)n3cncn3)CC2)c1 (stereo not drawn) | -6.98% |
| Cc1nnc(NC(=O)NCc2cc(F)cc(F)c2)s1 | -14.2% |
| Cc1ccc(C)n1-c1ccc(C(=O)NCCNc2ncccn2)cc1 | -7.02% |
| O=C(Cc1ccc2c(c1)CCC2)NCCNc1ncccn1 | 10.9% |
| COc1ccc(C)cc1CN(C)Cc1nc2c(cnn2C)c(=O)[nH]1 | -7.21% |
| Cc1cc(C)c(CNC(=O)N(C)Cc2sccc2C)c(=O)[nH]1 | -10.7% |
| CCOc1cccc(C(=O)N2CCN(c3nccc(OC)n3)CC2)c1 | 23.4% |
| CCOc1ccnc(N2CCN(C(=O)C(C)(C)C#N)CC2)n1 | -12.5% |
| CCN(Cc1ccccc1)C(=O)CN1CCCC(Cn2cncn2)C1 (stereo not drawn) | -4.31% |
| CC(C)c1nnc2n1CCN(CC(=O)Nc1sccc1C#N)C2 | 13.5% |
| Cc1nc(CN(C)C2CCN(Cc3nc4ccccc4s3)C2)no1 (stereo not drawn) | -8.96% |
| CCCOCC(=O)NS(=O)(=O)c1ccc2c(c1)OCCCO2 | 19.6% |
| COCCCC(=O)NS(=O)(=O)c1ccc2c(c1)OCCCO2 | -8.6% |
| CN(Cc1ccc2c(c1)OCO2)Cc1nc2c(cnn2C)c(=O)[nH]1 | 1.92% |
| CCc1ncncc1C(=O)N1CCCN(Cc2ccc(C)cc2)CC1 | 20.1% |
| Cc1cnn(CCNCC(=O)NCc2ccccc2)c1 | -12.3% |
| Cc1nc(CN(C)C2CCN(Cc3sc(C)nc3C)C2)no1 (stereo not drawn) | -7.02% |
| CN(Cc1ccco1)C(=O)CN1CCCC(Cn2cncn2)C1 (stereo not drawn) | -8.21% |
| Cc1nn(C)c(C)c1C1CCCN1C(=O)CCCn1cccn1 (stereo not drawn) | -14.1% |

| Compound | cytotoxicity at 70.5 h |
| --- | --- |
| Cc1nc(CN2CCCN(CCOc3cccc(C#N)c3)CC2)no1 | 38.4% |
| c1ccc(Cn2cc(CNCC3CCCN3c3cccnn3)cn2)cc1 (stereo not drawn) | 3.57% |
| Cc1nc(C)n(CC2CN(Cc3cccnc3)CCO2)n1 (stereo not drawn) | -3.76% |
| Cc1nc(C)n(CC2CN(Cc3cccc4c3OCCO4)CCO2)n1 (stereo not drawn) | 1.12% |
| Cc1cc(CN2CCCC2c2c(C)nn(C)c2Cl)no1 (stereo not drawn) | 4.73% |
| O=C(NCCc1ccsc1)Nc1cccnc1N1CCCC1 | 3.02% |
| O=C(CCNC(=O)C1CCCC1)NCc1cccnc1-n1cncn1 | -9.48% |
| Cc1noc(NC(=O)c2ccc(OC(F)(F)F)cc2)n1 | 55.7% |
| Cc1noc(NC(=O)c2ccc(Br)cc2)n1 | 48.3% |
| Cc1nc(-c2ccccc2)sc1C(=O)NCCNc1ncccn1 | 1.41% |
| Cc1nccn1-c1cc(CNC(=O)CCNC(=O)C2CCCC2)ccn1 | 2.73% |
| Cc1ncsc1C(=O)NC1CCN(CC(=O)N(C)C(C)(C)C#N)CC1 | 28.1% |
| CCN(Cc1ccco1)C(=O)Nc1cc(C(F)(F)F)c[nH]c1=O | 11.4% |
| OCCn1nccc1C1CCN(CCCOc2ccc(F)cc2)CC1 | -1.62% |
| Cc1cc(C)c(CNC(=O)NCC(c2ccccc2)N(C)C)c(=O)[nH]1 (stereo not drawn) | 7.25% |
| O=C(c1ccc(N2CCCC2)nn1)N1CCCC(n2cccn2)C1 (stereo not drawn) | -1.11% |
| Cc1cc(C)n(CC2CN(CCOc3cccc(F)c3)CCO2)n1 (stereo not drawn) | 1.51% |
| O=C(NCC1CC1)N1CCN(Cc2ccc3c(c2)OCCO3)CC1 | 2.86% |
| Cc1cnn(CC2CCCN2C(=O)c2cc(C)no2)c1 (stereo not drawn) | 25.6% |
| CN(C)CC1CN(CCOc2cccc(C#N)c2)CCO1 (stereo not drawn) | 0.102% |
| CCc1ncc2c(n1)CN(CC(=O)NCCOc1ccccc1)CC2 | -5.27% |
| CC(C)c1nn(C)c(Cl)c1CNCc1ccc(N(C)C)nc1 | -2.07% |
